Laboratory results reported in patent US12371454B2, “Cyclic peptide compound having Kras inhibitory action” (priority 2019, dated 2025).
Starred links: 1 amine or outer side, 2 acyl side, 3 side chain; linkers in the order of their positions; H or OH if unused. Positions of bridges follow the written chain, without caps; N, C: chain ends. Non-standard residues stand in square brackets, D forms with d. Residues, ends and D or L forms follow the SMILES beside them. *: point of attachment. hPhe(3,5-F2-4-CF3) = N[C@@H](CCc1cc(F)c(C(F)(F)F)c(F)c1)C(=O)O; hPhe(3-Cl-4-CF3) = N[C@@H](CCc1ccc(C(F)(F)F)c(Cl)c1)C(=O)O; NMePhe(4-CF3) = CN[C@@H](Cc1ccc(C(F)(F)F)cc1)C(=O)O; NMePhe(3,4-F2) = CN[C@@H](Cc1ccc(F)c(F)c1)C(=O)O; NMePhe(3-Br) = CN[C@@H](Cc1cccc(Br)c1)C(=O)O; NMePhe(4-Me) = CN[C@@H](Cc1ccc(C)cc1)C(=O)O; X11 = CN([C@@H](CCc1cccnc1)C(=O)[*:2])[*:1]; NMePhe(4-F) = CN[C@@H](Cc1ccc(F)cc1)C(=O)O; NMePhe(4-I) = CN[C@@H](Cc1ccc(I)cc1)C(=O)O; NMePhe(2-Me) = CN[C@@H](Cc1ccccc1C)C(=O)O; Abu(4,4,4-F3) = N[C@@H](CC(F)(F)F)C(=O)O; NMeGly(cPent) = CN[C@H](C(=O)O)C1CCCC1; NMeCha = CN[C@@H](CC1CCCCC1)C(=O)O; NMeChg = CN[C@H](C(=O)O)C1CCCCC1; NMeI = CC[C@H](C)[C@H](NC)C(=O)O; dNMeF = CN[C@H](Cc1ccccc1)C(=O)O; Gly(cPr) = N[C@H](C(=O)O)C1CC1; NMeD = CN[C@@H](CC(=O)O)C(=O)O; NMeL = CN[C@@H](CC(C)C)C(=O)O; NMeV = CN[C@H](C(=O)O)C(C)C; Morpholide = C1CN(*)CCO1; NMeA = CN[C@@H](C)C(=O)O; Piperidide = C1CCN(*)CC1; Ac5c = NC1(C(=O)O)CCCC1; Aze = O=C(O)[C@@H]1CCN1; Ac4c = NC1(C(=O)O)CCC1; Sar = CNCC(=O)O

biological target: T1, Kras and SOS1 (biotin-tagged human Kras loaded with GDP, His-tagged human SOS1) (Homo sapiens, UniProt P01116, G12D); assay: Protein-protein interaction inhibition between Kras and SOS1 (KrasGl2D-SOS PPI) using AlphaScreen; assay type: binding; details: AlphaScreen; biotin-tagged human Kras loaded with GDP, His-tagged human SOS1; read-out: KRAS G12D-SOS PPI IC50
T1 construct: made in house; host or cells: E. coli (stated for Kras only)
T1 sequence (P01116 1-188 isoform P01116-2 G12D): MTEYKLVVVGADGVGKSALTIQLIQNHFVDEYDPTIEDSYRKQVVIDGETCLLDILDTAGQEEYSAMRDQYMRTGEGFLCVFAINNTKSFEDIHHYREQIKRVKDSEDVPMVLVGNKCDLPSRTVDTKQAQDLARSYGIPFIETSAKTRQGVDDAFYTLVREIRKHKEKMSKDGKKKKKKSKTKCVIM
Method in brief: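 Energy transfer from nickel-chelate donor beads bound to His-SOS1 to streptavidin acceptor beads bound to biotin-Kras, expressed in E. coli and loaded with GDP after purification, was monitored. Donors were excited at 680 nm; singlet oxygen reaching acceptors gave emission read at 520-620 nm.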

Compound	IC50 [nM]
CC(C)C[C@H]1C(=O)N[C@@H](C2CC2)C(=O)N(C)CC(=O)N(C)CC(=O)N(C)[C@@H](CC2CCCCC2)C(=O)N(C)CC(=O)N[C@@H](CCc2ccc(C(F)(F)F)c(Cl)c2)C(=O)N2CCC[C@H]2C(=O)NC2(CCCC2)C(=O)N(C)[C@@H](C2CCCCC2)C(=O)N(C)[C@H](C(=O)N2CCCCC2)CC(=O)N1C [Compound 1862] ([NMeL][Gly(cPr)][Sar][Sar][NMeCha][Sar][hPhe(3-Cl-4-CF3)]P[Ac5c][NMeChg][NMeD]-Piperidide; lactam N-11)	2
CC(C)C[C@H]1C(=O)N[C@@H](CC(F)(F)F)C(=O)N(C)[C@@H](C)C(=O)N2CC[C@H]2C(=O)N(C)[C@@H](CC2CCCCC2)C(=O)N(C)CC(=O)N[C@@H](CCc2ccc(C(F)(F)F)c(Cl)c2)C(=O)N2CCC[C@H]2C(=O)NC2(CCCC2)C(=O)N(C)[C@@H](C(C)C)C(=O)N(C)[C@H](C(=O)N2CCCCC2)CC(=O)N1C [Compound 1864] ([NMeL][Abu(4,4,4-F3)][NMeA][Aze][NMeCha][Sar][hPhe(3-Cl-4-CF3)]P[Ac5c][NMeV][NMeD]-Piperidide; lactam N-11)	48
CC[C@H](C)[C@@H]1NC(=O)[C@H](CC(C)C)N(C)C(=O)C[C@@H](C(=O)N(C)C)N(C)C(=O)[C@H]([C@@H](C)CC)N(C)C(=O)C2(CCCC2)NC(=O)[C@@H]2CCCN2C(=O)[C@H](CCc2ccc(C(F)(F)F)c(Cl)c2)NC(=O)CN(C)C(=O)[C@H](CC2CCCCC2)N(C)C(=O)CN(C)C(=O)CN(C)C1=O [Compound 1865] ([NMeL]I[Sar][Sar][NMeCha][Sar][hPhe(3-Cl-4-CF3)]P[Ac5c][NMeI][NMeD]-NMe2; lactam N-11)	0.43
CC[C@H](C)[C@@H]1NC(=O)[C@H](CC(C)C)N(C)C(=O)C[C@@H](C(=O)N(C)C)N(C)C(=O)[C@H]([C@@H](C)CC)N(C)C(=O)C2(CCCC2)NC(=O)[C@H](Cc2cccc(Br)c2)N(C)C(=O)[C@H](CCc2ccc(C(F)(F)F)c(Cl)c2)NC(=O)CN(C)C(=O)[C@H](Cc2ccc(C)cc2)N(C)C(=O)[C@@H]2CCN2C(=O)[C@H](C)N(C)C1=O [Compound 1873] ([NMeL]I[NMeA][Aze][NMePhe(4-Me)][Sar][hPhe(3-Cl-4-CF3)][NMePhe(3-Br)][Ac5c][NMeI][NMeD]-NMe2; lactam N-11)	33
CC[C@H](C)[C@@H]1NC(=O)[C@H](CC(C)C)N(C)C(=O)C[C@@H](C(=O)N2CCOCC2)N(C)C(=O)[C@H](C2CCCCC2)N(C)C(=O)C2(CCC2)NC(=O)[C@@H]2CCCN2C(=O)[C@H](CCc2ccc(C(F)(F)F)c(Cl)c2)NC(=O)CN(C)C(=O)[C@H](CC2CCCCC2)N(C)C(=O)CN(C)C(=O)CN(C)C1=O [Compound 1875] ([NMeL]I[Sar][Sar][NMeCha][Sar][hPhe(3-Cl-4-CF3)]P[Ac4c][NMeChg][NMeD]-Morpholide; lactam N-11)	0.42
CC[C@H](C)[C@@H]1NC(=O)[C@H](CC(C)C)N(C)C(=O)C[C@@H](C(=O)N2CCCCC2)N(C)C(=O)[C@H]([C@@H](C)CC)N(C)C(=O)C2(CCCC2)NC(=O)[C@H](Cc2ccc(F)cc2)N(C)C(=O)[C@H](CCc2ccc(C(F)(F)F)c(Cl)c2)NC(=O)CN(C)C(=O)[C@H](Cc2ccc(C)cc2)N(C)C(=O)[C@@H]2CCN2C(=O)[C@H](C)N(C)C1=O [Compound 1876] ([NMeL]I[NMeA][Aze][NMePhe(4-Me)][Sar][hPhe(3-Cl-4-CF3)][NMePhe(4-F)][Ac5c][NMeI][NMeD]-Piperidide; lactam N-11)	98
CC[C@H](C)[C@@H]1NC(=O)[C@H](C)N(C)C(=O)C[C@@H](C(=O)N(C)C)N(C)C(=O)[C@H]([C@@H](C)CC)N(C)C(=O)C2(CCCC2)NC(=O)[C@H](Cc2ccc(F)c(F)c2)N(C)C(=O)[C@H](CCc2ccc(C(F)(F)F)c(Cl)c2)NC(=O)CN(C)C(=O)[C@H](Cc2ccc(C)cc2)N(C)C(=O)[C@@H]2CCN2C(=O)[C@H](C)N(C)C1=O [Compound 1878] ([NMeA]I[NMeA][Aze][NMePhe(4-Me)][Sar][hPhe(3-Cl-4-CF3)][NMePhe(3,4-F2)][Ac5c][NMeI][NMeD]-NMe2; lactam N-11)	8.8
CC[C@H](C)[C@@H]1NC(=O)[C@H](CC(C)C)N(C)C(=O)C[C@@H](C(=O)N(C)C)N(C)C(=O)[C@H](C2CCCC2)N(C)C(=O)C2(CCCC2)NC(=O)[C@H](Cc2ccccc2C)N(C)C(=O)[C@H](CCc2ccc(C(F)(F)F)c(Cl)c2)NC(=O)CN(C)C(=O)[C@H](CC2CCCCC2)N(C)C(=O)[C@@H]2CCN2C(=O)[C@H](C)N(C)C1=O [Compound 1880] ([NMeL]I[NMeA][Aze][NMeCha][Sar][hPhe(3-Cl-4-CF3)][NMePhe(2-Me)][Ac5c][NMeGly(cPent)][NMeD]-NMe2; lactam N-11)	13
CC[C@H](C)[C@@H]1NC(=O)[C@H](CC(C)C)N(C)C(=O)C[C@@H](C(=O)N(C)C)N(C)C(=O)[C@H]([C@@H](C)CC)N(C)C(=O)C2(CCCC2)NC(=O)[C@H](Cc2ccc(F)cc2)N(C)C(=O)[C@H](CCc2cc(F)c(C(F)(F)F)c(F)c2)NC(=O)CN(C)C(=O)[C@H](Cc2ccc(C(F)(F)F)cc2)N(C)C(=O)[C@@H]2CCN2C(=O)[C@H](C)N(C)C1=O [Compound 1882] ([NMeL]I[NMeA][Aze][NMePhe(4-CF3)][Sar][hPhe(3,5-F2-4-CF3)][NMePhe(4-F)][Ac5c][NMeI][NMeD]-NMe2; lactam N-11)	9.7
CC[C@H](C)[C@@H]1NC(=O)[C@H](C)N(C)C(=O)C[C@@H](C(=O)N2CCCCC2)N(C)C(=O)[C@H]([C@@H](C)CC)N(C)C(=O)C2(CCCC2)NC(=O)[C@H](Cc2ccc(F)cc2)N(C)C(=O)[C@H](CCc2ccc(C(F)(F)F)c(Cl)c2)NC(=O)CN(C)C(=O)[C@H](Cc2ccc(C)cc2)N(C)C(=O)[C@@H]2CCN2C(=O)[C@H](C)N(C)C1=O [Compound 1885] ([NMeA]I[NMeA][Aze][NMePhe(4-Me)][Sar][hPhe(3-Cl-4-CF3)][NMePhe(4-F)][Ac5c][NMeI][NMeD]-Piperidide; lactam N-11)	32
CC[C@H](C)[C@@H]1NC(=O)[C@H](CC(C)C)N(C)C(=O)C[C@@H](C(=O)N(C)C)N(C)C(=O)[C@H]([C@@H](C)CC)N(C)C(=O)C2(CCCC2)NC(=O)[C@H](CCc2cccnc2)N(C)C(=O)[C@H](CCc2ccc(C(F)(F)F)c(Cl)c2)NC(=O)CN(C)C(=O)[C@H](Cc2ccc(C)cc2)N(C)C(=O)[C@@H]2CCN2C(=O)[C@H](C)N(C)C1=O [Compound 1886] ([NMeL]I[NMeA][Aze][NMePhe(4-Me)][Sar][hPhe(3-Cl-4-CF3)][X11][Ac5c][NMeI][NMeD]-NMe2; lactam N-11)	0.93
CC[C@H](C)[C@@H]1NC(=O)[C@H](C)N(C)C(=O)C[C@@H](C(=O)N2CCCCC2)N(C)C(=O)[C@H]([C@@H](C)CC)N(C)C(=O)C2(CCCC2)NC(=O)[C@@H](Cc2ccccc2)N(C)C(=O)[C@H](CCc2cc(F)c(C(F)(F)F)c(F)c2)NC(=O)CN(C)C(=O)[C@H](Cc2ccc(C)cc2)N(C)C(=O)[C@@H]2CCN2C(=O)[C@H](C)N(C)C1=O [Compound 1887] ([NMeA]I[NMeA][Aze][NMePhe(4-Me)][Sar][hPhe(3,5-F2-4-CF3)][dNMeF][Ac5c][NMeI][NMeD]-Piperidide; lactam N-11)	180
CC[C@H](C)[C@@H]1NC(=O)[C@H](CC(C)C)N(C)C(=O)C[C@@H](C(=O)N(C)C)N(C)C(=O)[C@H]([C@@H](C)CC)N(C)C(=O)C2(CCCC2)NC(=O)[C@H](Cc2ccc(I)cc2)N(C)C(=O)[C@H](CCc2ccc(C(F)(F)F)c(Cl)c2)NC(=O)CN(C)C(=O)[C@H](Cc2ccc(C)cc2)N(C)C(=O)[C@@H]2CCN2C(=O)[C@H](C)N(C)C1=O [Compound 1888] ([NMeL]I[NMeA][Aze][NMePhe(4-Me)][Sar][hPhe(3-Cl-4-CF3)][NMePhe(4-I)][Ac5c][NMeI][NMeD]-NMe2; lactam N-11)	53
